Test results from ChEMBL document CHEMBL4507265 (2021).

Experiments:
[1] = system: Tyrosine-protein kinase ABL1 (Homo sapiens), P00519 [Y253F]; conditions: Compound concentration 1000.0 nM
[2] = target: Tyrosine-protein kinase ABL1 (Homo sapiens) (UniProt P00519); conditions: Compound concentration 1000.0 nM
[3] = system: ALK tyrosine kinase receptor (Homo sapiens), Q9UM73 [L1196M]; conditions: Compound concentration 1000.0 nM
[4] = target: Tyrosine-protein kinase receptor UFO (Homo sapiens) (UniProt P30530); conditions: Compound concentration 1000.0 nM
Sequence of Tyrosine-protein kinase receptor UFO (Homo sapiens) (P30530 whole entry): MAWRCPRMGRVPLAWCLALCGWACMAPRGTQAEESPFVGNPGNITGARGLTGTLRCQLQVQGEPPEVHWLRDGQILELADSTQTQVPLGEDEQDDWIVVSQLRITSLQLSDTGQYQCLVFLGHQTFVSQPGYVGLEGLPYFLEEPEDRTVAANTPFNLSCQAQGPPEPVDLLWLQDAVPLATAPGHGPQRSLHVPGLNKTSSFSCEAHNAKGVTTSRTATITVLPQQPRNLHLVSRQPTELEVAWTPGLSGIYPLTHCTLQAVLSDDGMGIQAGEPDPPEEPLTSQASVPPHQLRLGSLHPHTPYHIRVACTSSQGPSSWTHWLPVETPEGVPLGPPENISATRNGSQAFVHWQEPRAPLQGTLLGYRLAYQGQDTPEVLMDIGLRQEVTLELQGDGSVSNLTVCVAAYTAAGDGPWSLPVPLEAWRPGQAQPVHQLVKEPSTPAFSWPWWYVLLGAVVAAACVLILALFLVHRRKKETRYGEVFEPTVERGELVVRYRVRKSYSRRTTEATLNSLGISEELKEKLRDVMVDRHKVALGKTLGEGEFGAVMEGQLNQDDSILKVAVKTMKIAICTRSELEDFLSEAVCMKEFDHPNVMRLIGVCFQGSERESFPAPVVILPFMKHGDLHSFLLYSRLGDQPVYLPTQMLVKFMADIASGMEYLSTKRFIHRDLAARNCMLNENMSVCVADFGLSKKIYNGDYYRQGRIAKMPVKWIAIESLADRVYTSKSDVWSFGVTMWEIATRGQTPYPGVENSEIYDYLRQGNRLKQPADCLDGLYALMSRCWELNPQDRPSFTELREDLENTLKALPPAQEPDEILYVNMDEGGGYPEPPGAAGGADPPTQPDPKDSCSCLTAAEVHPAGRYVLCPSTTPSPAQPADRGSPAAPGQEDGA

[5] = target: Calcium/calmodulin-dependent protein kinase type 1D (Homo sapiens) (UniProt Q8IU85); conditions: Compound concentration 1000.0 nM
[6] = target: Cyclin-dependent kinase-like 2 (Homo sapiens) (UniProt Q92772); conditions: Compound concentration 1000.0 nM
[7] = target: Serine/threonine-protein kinase 17B (Homo sapiens) (UniProt O94768); conditions: Compound concentration 1000.0 nM
[8] = system: Epidermal growth factor receptor (Homo sapiens), P00533 [L858R,T790M]; conditions: Compound concentration 1000.0 nM
[9] = system: Epidermal growth factor receptor (Homo sapiens), P00533 [L861Q]; conditions: Compound concentration 1000.0 nM
[10] = target: Ephrin type-A receptor 5 (Homo sapiens) (UniProt P54756); conditions: Compound concentration 1000.0 nM
[11] = target: Ephrin type-B receptor 2 (Homo sapiens) (UniProt P29323); conditions: Compound concentration 1000.0 nM
[12] = target: Tyrosine-protein kinase FRK (Homo sapiens) (UniProt P42685); conditions: Compound concentration 1000.0 nM
[13] = target: Tyrosine-protein kinase HCK (Homo sapiens) (UniProt P08631); conditions: Compound concentration 1000.0 nM
[14] = target: Serine/threonine-protein kinase ICK (Homo sapiens) (UniProt Q9UPZ9); conditions: Compound concentration 1000.0 nM
[15] = target: Insulin receptor (Homo sapiens) (UniProt P06213); conditions: Compound concentration 1000.0 nM
[16] = target: Mitogen-activated protein kinase 9 (Homo sapiens) (UniProt P45984); conditions: Compound concentration 1000.0 nM
[17] = target: Serine/threonine-protein kinase LATS2 (Homo sapiens) (UniProt Q9NRM7); conditions: Compound concentration 1000.0 nM
Sequence of Serine/threonine-protein kinase LATS2 (Homo sapiens) (Q9NRM7 whole entry): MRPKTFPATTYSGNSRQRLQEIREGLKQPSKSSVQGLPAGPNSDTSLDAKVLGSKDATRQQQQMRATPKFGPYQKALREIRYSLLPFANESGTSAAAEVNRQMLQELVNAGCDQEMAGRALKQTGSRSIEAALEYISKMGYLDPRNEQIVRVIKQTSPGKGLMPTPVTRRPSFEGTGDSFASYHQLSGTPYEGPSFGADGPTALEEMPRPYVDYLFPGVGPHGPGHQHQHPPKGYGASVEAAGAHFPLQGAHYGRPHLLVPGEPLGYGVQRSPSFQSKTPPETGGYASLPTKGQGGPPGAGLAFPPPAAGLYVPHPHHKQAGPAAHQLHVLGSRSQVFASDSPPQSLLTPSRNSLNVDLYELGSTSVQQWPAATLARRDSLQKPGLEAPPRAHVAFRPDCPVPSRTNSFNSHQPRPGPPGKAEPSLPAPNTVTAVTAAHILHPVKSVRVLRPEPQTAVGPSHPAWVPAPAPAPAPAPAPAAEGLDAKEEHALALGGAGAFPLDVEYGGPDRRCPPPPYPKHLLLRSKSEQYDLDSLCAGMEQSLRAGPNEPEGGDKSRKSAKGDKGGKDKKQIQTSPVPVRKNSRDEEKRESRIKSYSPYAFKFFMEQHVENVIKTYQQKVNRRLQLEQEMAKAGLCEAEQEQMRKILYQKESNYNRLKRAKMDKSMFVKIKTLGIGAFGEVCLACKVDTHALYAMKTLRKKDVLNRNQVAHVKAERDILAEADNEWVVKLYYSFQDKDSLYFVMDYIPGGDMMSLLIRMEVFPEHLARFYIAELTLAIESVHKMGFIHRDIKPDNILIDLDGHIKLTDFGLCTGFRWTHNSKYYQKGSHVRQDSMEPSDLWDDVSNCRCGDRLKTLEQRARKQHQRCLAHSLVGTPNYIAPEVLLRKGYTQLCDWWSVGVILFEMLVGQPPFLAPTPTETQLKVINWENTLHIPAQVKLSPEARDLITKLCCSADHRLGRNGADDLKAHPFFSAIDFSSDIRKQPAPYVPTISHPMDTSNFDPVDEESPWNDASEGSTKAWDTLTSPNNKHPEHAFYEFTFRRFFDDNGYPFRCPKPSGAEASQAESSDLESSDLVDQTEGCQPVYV

[18] = target: Dual specificity mitogen-activated protein kinase kinase 3 (Homo sapiens) (UniProt P46734); conditions: Compound concentration 1000.0 nM
[19] = target: Tyrosine-protein kinase Mer (Homo sapiens) (UniProt Q12866); conditions: Compound concentration 1000.0 nM
[20] = system: Hepatocyte growth factor receptor (Homo sapiens), P08581 [Y1235D]; conditions: Compound concentration 1000.0 nM
[21] = target: Serine/threonine-protein kinase Nek9 (Homo sapiens) (UniProt Q8TD19); conditions: Compound concentration 1000.0 nM
[22] = target: Mitogen-activated protein kinase 14 (Homo sapiens) (UniProt Q16539); conditions: Compound concentration 1000.0 nM
Sequence of Mitogen-activated protein kinase 14 (Homo sapiens) (Q16539 whole entry): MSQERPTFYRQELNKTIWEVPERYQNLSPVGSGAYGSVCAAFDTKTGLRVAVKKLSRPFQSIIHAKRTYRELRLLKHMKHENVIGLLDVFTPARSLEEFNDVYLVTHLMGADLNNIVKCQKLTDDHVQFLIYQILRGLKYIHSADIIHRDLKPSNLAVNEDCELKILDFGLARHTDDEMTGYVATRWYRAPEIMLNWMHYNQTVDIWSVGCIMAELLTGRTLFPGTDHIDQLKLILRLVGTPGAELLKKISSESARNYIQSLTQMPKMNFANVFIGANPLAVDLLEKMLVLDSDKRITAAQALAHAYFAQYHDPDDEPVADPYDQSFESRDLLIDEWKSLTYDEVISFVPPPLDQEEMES

[23] = target: Serine/threonine-protein kinase PAK 3 (Homo sapiens) (UniProt O75914); conditions: Compound concentration 1000.0 nM
[24] = target: Platelet-derived growth factor receptor beta (Homo sapiens) (UniProt P09619); conditions: Compound concentration 1000.0 nM
[25] = target: Phosphorylase b kinase gamma catalytic chain, skeletal muscle/heart isoform (Homo sapiens) (UniProt Q16816); conditions: Compound concentration 1000.0 nM
[26] = target: Phosphatidylinositol 3-kinase C2 domain-containing subunit gamma (Homo sapiens) (UniProt O75747); conditions: Compound concentration 1000.0 nM
[27] = system: Phosphatidylinositol 4,5-bisphosphate 3-kinase catalytic subunit alpha isoform (Homo sapiens), P42336 [C420R]; conditions: Compound concentration 1000.0 nM
[28] = target: Serine/threonine-protein kinase PLK2 (Homo sapiens) (UniProt Q9NYY3); conditions: Compound concentration 1000.0 nM
[29] = system: Proto-oncogene tyrosine-protein kinase receptor Ret (Homo sapiens), P07949 [V804L]; conditions: Compound concentration 1000.0 nM
[30] = target: Serine/threonine-protein kinase RIO2 (Homo sapiens) (UniProt Q9BVS4); conditions: Compound concentration 1000.0 nM
[31] = target: Proto-oncogene tyrosine-protein kinase ROS (Homo sapiens) (UniProt P08922); conditions: Compound concentration 1000.0 nM
[32] = target: Ribosomal protein S6 kinase alpha-5 (Homo sapiens) (UniProt O75582); conditions: Compound concentration 1000.0 nM
[33] = target: Serine/threonine-protein kinase Sgk2 (Homo sapiens) (UniProt Q9HBY8); conditions: Compound concentration 1000.0 nM
Sequence of Serine/threonine-protein kinase Sgk2 (Homo sapiens) (Q9HBY8 whole entry): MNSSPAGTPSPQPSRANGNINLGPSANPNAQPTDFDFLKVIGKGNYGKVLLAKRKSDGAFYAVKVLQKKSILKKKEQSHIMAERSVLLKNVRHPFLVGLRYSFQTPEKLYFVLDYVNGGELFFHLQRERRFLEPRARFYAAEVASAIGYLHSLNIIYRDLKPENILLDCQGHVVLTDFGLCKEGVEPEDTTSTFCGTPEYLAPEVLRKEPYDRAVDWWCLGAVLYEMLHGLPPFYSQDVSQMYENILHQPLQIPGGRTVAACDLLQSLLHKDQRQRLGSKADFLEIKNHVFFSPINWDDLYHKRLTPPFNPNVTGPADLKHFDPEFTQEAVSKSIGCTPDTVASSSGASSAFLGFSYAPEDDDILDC

[34] = target: Proto-oncogene tyrosine-protein kinase Src (Homo sapiens) (UniProt P12931); conditions: Compound concentration 1000.0 nM
[35] = target: Serine/threonine-protein kinase 35 (Homo sapiens) (UniProt Q8TDR2); conditions: Compound concentration 1000.0 nM
Sequence of Serine/threonine-protein kinase 35 (Homo sapiens) (Q8TDR2 whole entry): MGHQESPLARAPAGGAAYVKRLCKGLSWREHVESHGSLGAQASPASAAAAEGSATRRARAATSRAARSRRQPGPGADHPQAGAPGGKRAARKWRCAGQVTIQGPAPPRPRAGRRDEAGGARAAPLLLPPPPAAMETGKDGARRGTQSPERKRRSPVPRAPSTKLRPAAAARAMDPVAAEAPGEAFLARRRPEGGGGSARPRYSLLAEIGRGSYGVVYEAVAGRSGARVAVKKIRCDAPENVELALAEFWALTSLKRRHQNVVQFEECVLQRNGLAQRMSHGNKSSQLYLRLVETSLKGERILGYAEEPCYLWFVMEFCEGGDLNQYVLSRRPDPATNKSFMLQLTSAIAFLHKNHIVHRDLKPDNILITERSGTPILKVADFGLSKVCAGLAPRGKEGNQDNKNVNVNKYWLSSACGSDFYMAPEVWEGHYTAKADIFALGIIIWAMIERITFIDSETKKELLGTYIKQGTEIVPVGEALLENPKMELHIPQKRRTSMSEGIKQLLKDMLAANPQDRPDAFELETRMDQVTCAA

[36] = target: Serine/threonine-protein kinase TAO3 (Homo sapiens) (UniProt Q9H2K8); conditions: Compound concentration 1000.0 nM
[37] = target: Non-receptor tyrosine-protein kinase TYK2 (Homo sapiens) (UniProt P29597); conditions: Compound concentration 1000.0 nM
Sequence of Non-receptor tyrosine-protein kinase TYK2 (Homo sapiens) (P29597 whole entry): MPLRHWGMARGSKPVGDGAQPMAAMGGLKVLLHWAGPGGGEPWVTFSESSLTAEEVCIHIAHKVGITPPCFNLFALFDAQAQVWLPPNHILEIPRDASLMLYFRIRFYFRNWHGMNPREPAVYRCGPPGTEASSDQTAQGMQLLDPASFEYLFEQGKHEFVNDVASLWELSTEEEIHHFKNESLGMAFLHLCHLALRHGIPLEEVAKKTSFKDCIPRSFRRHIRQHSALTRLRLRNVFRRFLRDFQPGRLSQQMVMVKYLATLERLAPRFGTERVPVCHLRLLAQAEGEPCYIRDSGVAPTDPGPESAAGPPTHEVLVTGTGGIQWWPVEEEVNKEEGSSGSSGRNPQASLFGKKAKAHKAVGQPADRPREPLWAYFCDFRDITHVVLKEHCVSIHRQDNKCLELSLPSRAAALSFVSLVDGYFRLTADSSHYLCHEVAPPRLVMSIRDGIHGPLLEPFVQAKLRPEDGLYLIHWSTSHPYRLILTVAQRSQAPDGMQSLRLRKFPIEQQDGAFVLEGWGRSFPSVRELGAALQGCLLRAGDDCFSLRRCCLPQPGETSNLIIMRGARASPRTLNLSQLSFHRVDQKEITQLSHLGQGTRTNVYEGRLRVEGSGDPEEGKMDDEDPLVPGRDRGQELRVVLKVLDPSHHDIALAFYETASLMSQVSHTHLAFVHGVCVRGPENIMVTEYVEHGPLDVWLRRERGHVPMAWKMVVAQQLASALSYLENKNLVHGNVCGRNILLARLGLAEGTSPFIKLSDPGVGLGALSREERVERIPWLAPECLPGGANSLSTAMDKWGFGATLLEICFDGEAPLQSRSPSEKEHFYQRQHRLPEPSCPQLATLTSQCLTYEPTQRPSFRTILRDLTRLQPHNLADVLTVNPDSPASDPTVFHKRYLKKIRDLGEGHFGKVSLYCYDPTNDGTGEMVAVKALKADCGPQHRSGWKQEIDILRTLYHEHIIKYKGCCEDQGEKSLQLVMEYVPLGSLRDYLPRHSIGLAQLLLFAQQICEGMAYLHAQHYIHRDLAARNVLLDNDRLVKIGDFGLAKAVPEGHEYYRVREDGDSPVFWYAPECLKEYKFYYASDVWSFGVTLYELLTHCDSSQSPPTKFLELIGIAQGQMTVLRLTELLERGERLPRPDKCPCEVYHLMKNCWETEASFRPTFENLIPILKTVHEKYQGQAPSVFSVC

[38] = target: T1, 5-hydroxytryptamine receptor 1A (Homo sapiens) (UniProt P08908); conditions: Compound concentration 10.0 uM
T1 sequence (whole entry): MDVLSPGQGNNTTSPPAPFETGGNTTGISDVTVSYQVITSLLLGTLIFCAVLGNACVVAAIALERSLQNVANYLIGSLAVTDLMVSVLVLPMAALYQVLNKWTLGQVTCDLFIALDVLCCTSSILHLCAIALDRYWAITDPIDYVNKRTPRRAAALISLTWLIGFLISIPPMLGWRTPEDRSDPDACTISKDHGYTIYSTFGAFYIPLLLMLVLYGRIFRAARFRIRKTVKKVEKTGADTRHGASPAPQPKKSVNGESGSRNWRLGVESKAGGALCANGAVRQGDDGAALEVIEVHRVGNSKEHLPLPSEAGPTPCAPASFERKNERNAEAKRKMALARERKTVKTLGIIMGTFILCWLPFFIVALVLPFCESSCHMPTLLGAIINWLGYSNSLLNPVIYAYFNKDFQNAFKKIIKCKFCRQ

[39] = target: D(1A) dopamine receptor (Homo sapiens) (UniProt P21728); conditions: Compound concentration 10.0 uM
Sequence of D(1A) dopamine receptor (Homo sapiens) (P21728 whole entry): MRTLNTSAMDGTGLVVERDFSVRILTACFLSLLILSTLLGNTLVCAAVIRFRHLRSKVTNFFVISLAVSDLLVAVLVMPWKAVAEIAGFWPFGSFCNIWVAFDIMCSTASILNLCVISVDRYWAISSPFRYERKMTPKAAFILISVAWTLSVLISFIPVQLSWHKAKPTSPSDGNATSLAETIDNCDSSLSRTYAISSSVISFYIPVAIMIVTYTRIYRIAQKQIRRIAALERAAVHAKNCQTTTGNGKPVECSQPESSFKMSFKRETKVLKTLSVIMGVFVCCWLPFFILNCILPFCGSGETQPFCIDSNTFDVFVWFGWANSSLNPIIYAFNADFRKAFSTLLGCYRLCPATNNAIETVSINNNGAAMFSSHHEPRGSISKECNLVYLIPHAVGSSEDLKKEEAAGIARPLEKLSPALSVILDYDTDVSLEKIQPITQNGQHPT

NS(=O)(=O)c1cc(NC(=O)C2(c3ccccc3Cl)CC2)ccc1Oc1cccc(Cl)c1 [BAY-207]
inactive: residual activity [1] 69% | residual activity [2] 64% | residual activity [3] 85% | residual activity [4] 89% | residual activity [5] 97% | residual activity [6] 94% | residual activity [7] 97% | residual activity [8] 88% | residual activity [9] 76% | residual activity [10] 79% | residual activity [11] 74% | residual activity [12] 99% | residual activity [13] 89% | residual activity [14] 100% | residual activity [15] 100% | residual activity [16] 100% | residual activity [17] 68% | residual activity [18] 84% | residual activity [19] 70% | residual activity [20] 61% | residual activity [21] 94% | residual activity [22] 100% | residual activity [23] 64% | residual activity [24] 90% | residual activity [25] 89% | residual activity [26] 100% | residual activity [27] 100% | residual activity [28] 84% | residual activity [29] 70% | residual activity [30] 89% | residual activity [31] 82% | residual activity [32] 100% | residual activity [33] 100% | residual activity [34] 88% | residual activity [35] 94% | residual activity [36] 100% | residual activity [37] 80% | inhibition [38] 4.89% | inhibition [39] 3.57%

NS(=O)(=O)c1cc(NC(=O)Cc2ccccc2)ccc1Oc1cccc(Cl)c1 [BAY-1797]
inactive: residual activity [1] 76% | residual activity [2] 78% | residual activity [3] 62% | residual activity [4] 93% | residual activity [5] 100% | residual activity [6] 99% | residual activity [7] 100% | residual activity [8] 75% | residual activity [9] 64% | residual activity [10] 62% | residual activity [11] 100% | residual activity [12] 98% | residual activity [13] 54% | residual activity [14] 100% | residual activity [15] 100% | residual activity [16] 83% | residual activity [17] 94% | residual activity [18] 83% | residual activity [19] 82% | residual activity [20] 100% | residual activity [21] 83% | residual activity [22] 100% | residual activity [23] 85% | residual activity [24] 76% | residual activity [25] 87% | residual activity [26] 72% | residual activity [27] 62% | residual activity [28] 73% | residual activity [29] 80% | residual activity [30] 100% | residual activity [31] 81% | residual activity [32] 71% | residual activity [33] 85% | residual activity [34] 90% | residual activity [35] 99% | residual activity [36] 75% | residual activity [37] 67% | inhibition [38] -1.77% | inhibition [39] 21.6%
